From patent US8916565B2, “Pyrrolopyrazine-spirocyclic piperidine amides as modulators of ion channels” (priority 2011, dated 2014) come the findings set out here.

The structures appear in SMILES notation. Where only a bound is given, the exact number is not on record here.

The experiment has as its target human NaV subtype, like NaV 1.7 (Homo sapiens, UniProt Q15858). As to the kind of experiment: E-VIPR optical membrane potential assay with electrical stimulation. As to conditions: active against one or more sodium channels; Table 3 does not name the assay or NaV subtype; read-out: Binned Activity Data (IC50). The class given is cell-based. The text has this: Assays for Detecting and Measuring NaV Inhibition Properties of Compound E-VIPR Optical Membrane Potential Assay Method with Electrical Stimulation
Sodium channels are voltage-dependent proteins that can be activated by inducing membrane voltage changes by applying electric fields. The electrical stimulation instrument and methods of use are described in Ion Channel Assay Methods PCT/US01/21652, herein incorporated by reference and are referred to as E-VIPR. The instrument comprises a microtiter plate handler, an optical system for exciting the coumarin dye while simultaneously recording the coumarin and oxonol emissions, a waveform generator, a current- or voltage-controlled amplifier, and a device for inserting electrodes in well. Under integrated computer control, this instrument passes user-programmed electrical stimulus protocols to cells within the wells of the microtiter plate.
24 hours before the assay on E-VIPR, HEK cells expressing human NaV subtype, like NaV 1.7, are seeded in 384-well poly-lysine coated plates at 15,000-20,000 cells per well. Other subtypes are performed in an analogous mode in a cell line expressing the NaV of interest. HEK cells are grown in media (exact composition is specific to each cell type and NaV subtype) supplemented with 10% FBS (Fetal Bovine Serum, qualified; GibcoBRL #16140-071) and 1% Pen-Strep (Penicillin-Streptomycin; GibcoBRL #15140-122). Cells are grown in vented cap flasks, in 90% humidity and 10% CO2, to 100% confluence. They are usually split by trypsinization 1:10 or 1:20, depending on scheduling needs, and grown for 2-3 days before the next split.
Bath 1 buffer. Glucose 10 mM (1.8 g/L), Magnesium Chloride (Anhydrous), 1 mM (0.095 g/L), Calcium Chloride, 2 mM (0.222 g/L), HEPES 10 mM (2.38 g/L), Potassium Chloride, 4.5 mM (0.335 g/L), Sodium Chloride 160 mM (9.35 g/L).
Hexyl Dye Solution: Bath 1 Buffer+0.5% β-cyclodextrin (make this prior to use, Sigma #C4767), 8 μM CC2-DMPE+2.5 μM DiSBAC6(3). To make the solution Add volume of 10% Pluronic F127 stock equal to volumes of CC2-DMPE+DiSBAC6(3). The order of preparation is first mix Pluronic and CC2-DMPE, then add DiSBAC6(3) while vortexing, then add Bath 1+β-Cyclodextrin.
1) Pre-spot compounds (in neat DMSO) into compound plates. Vehicle control (neat DMSO), the positive control (20 mM DMSO stock tetracaine, 125 μM final in assay) and test compounds are added to each well at 160× desired final concentration in neat DMSO. Final compound plate volume will be 80 μL (80-fold intermediate dilution from 1 μL DMSO spot; 160-fold final dilution after transfer to cell plate). Final DMSO concentration for all wells in assay is 0.625%.
2) Prepare Hexyl Dye Solution.
3) Prepare cell plates. On the day of the assay, medium is aspirated and cells are washed three times with 100 μL of Bath 1 Solution, maintaining 25 μL residual volume in each well.
4) Dispense 25 μL per well of Hexyl Dye Solution into cell plates. Incubate for 20-35 minutes at room temp or ambient conditions.
5) Dispense 80 μL per well of Bath 1 into compound plates. Acid Yellow-17 (1 mM) is added and Potassium Chloride can be altered from 4.5 to 20 mM depending on the NaV subtype and assay sensitivity.
6) Wash cell plates three times with 100 μL per well of Bath1, leaving 25 μL of residual volume. Then transfer 25 uL per well from Compound Plates to Cell Plates. Incubate for 20-35 minutes at room temp/ambient condition
7) Read Plate on E-VIPR. Use the current-controlled amplifier to deliver stimulation wave pulses for typically 9 seconds and a scan rate of 400 Hz. A pre-stimulus recording is performed for 0.5 seconds to obtain the un-stimulated intensities baseline. The stimulatory waveform is applied for 9 seconds followed by 0.5 seconds of post-stimulation recording to examine the relaxation to the resting state.

Chain of human NaV subtype, like NaV 1.7 (Q15858 whole entry): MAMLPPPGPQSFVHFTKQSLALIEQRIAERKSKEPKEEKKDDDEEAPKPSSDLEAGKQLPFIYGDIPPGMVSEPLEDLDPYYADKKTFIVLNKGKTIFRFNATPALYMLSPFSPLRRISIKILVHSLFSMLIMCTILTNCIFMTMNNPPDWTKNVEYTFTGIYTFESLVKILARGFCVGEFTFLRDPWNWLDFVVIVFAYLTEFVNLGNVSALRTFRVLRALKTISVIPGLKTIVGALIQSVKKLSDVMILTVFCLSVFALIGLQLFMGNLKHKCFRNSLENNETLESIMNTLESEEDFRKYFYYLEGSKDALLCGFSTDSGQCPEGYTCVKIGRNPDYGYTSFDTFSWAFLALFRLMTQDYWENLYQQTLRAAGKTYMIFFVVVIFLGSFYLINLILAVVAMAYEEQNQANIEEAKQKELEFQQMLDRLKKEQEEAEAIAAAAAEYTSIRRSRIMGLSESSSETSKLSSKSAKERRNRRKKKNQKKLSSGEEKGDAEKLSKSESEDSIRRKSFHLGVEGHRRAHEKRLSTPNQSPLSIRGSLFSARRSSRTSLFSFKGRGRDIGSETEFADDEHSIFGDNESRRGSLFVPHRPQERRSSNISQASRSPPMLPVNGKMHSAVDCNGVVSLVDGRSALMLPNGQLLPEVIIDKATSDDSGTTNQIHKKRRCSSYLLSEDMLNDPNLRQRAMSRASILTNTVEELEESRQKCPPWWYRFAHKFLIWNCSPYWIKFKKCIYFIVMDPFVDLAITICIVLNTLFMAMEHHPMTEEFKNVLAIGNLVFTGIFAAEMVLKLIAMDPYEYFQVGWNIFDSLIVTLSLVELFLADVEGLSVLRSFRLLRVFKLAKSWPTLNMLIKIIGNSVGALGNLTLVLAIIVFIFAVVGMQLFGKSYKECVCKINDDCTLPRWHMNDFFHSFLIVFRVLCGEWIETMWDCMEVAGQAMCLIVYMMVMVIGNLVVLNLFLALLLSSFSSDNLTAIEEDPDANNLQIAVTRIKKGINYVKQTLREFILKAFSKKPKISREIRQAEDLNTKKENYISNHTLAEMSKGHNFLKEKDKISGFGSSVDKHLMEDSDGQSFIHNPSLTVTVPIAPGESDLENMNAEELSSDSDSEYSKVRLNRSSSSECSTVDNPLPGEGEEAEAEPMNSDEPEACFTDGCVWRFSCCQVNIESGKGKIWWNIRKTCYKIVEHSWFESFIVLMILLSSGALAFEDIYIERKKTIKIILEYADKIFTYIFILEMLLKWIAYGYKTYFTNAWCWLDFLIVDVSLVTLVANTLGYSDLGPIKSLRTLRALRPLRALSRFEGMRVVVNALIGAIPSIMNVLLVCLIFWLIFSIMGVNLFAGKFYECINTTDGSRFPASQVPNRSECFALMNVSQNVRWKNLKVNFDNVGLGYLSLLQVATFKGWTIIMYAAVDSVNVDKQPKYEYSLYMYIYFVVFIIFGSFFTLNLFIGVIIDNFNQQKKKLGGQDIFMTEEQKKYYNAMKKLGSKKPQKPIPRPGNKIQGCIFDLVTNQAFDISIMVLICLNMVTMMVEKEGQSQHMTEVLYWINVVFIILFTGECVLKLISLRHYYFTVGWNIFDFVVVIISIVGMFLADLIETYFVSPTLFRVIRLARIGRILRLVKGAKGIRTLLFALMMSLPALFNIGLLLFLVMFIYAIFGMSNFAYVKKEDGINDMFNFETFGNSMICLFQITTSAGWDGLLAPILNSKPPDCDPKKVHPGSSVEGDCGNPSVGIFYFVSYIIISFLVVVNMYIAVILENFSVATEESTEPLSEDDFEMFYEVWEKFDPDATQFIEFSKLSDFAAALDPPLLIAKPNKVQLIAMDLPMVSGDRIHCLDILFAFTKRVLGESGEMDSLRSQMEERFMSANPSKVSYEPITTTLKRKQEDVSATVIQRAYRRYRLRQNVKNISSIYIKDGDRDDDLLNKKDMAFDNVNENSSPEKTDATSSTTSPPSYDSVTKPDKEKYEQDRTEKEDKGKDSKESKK

With `Cc1cc(C(=O)N2CCC3(CC2)c2ccc(C(=O)C(F)(F)F)n2CCN3C)ccc1Cl` [Compound 1], the IC50 fell in the range of 2 to 5 µM. `Cc1cc(C(=O)N2CCC3(CC2)c2ccc(C(F)(F)F)n2CCN3C)ccc1S(=O)(=O)C(C)C` [Compound 2]: the IC50 was no more than 2 µM. As for `COc1cc(C(=O)N2CC[C@]3(c4ccc(C(F)(F)F)n4CCN3C)[C@H](F)C2)ccc1OC(C)C` [Compound 3], the figure is greater than 5 µM. As for `COc1cc(C(=O)N2CCC3(CC2)NCC(=O)n2c(C(F)(F)F)ccc23)ccc1OC(C)C` [Compound 4], the figure is greater than 5 µM; as for `CC(=O)c1ccc2n1CCN(C)C21CCN(C(=O)c2ccc(CC(C)C)cc2)CC1` [Compound 5], no more than 2 µM; as for `CN1CCn2c(C(=O)C(F)(F)F)ccc2C12CCN(C(=O)c1ccc(OC(C)(C)C)cc1)CC2` [Compound 6], no more than 2 µM.

In the case of `CNS(=O)(=O)c1ccc(C(=O)N2CCC3(CC2)c2ccc(C(F)(F)F)n2CCN3C)cc1C` [Compound 7], the IC50 is no more than 2 µM. As for `CC1CN(C)C2(CCN(C(=O)c3ccc(COCCC(F)(F)F)cc3)CC2)c2ccc(C(=O)C(F)(F)F)n21` (stereo not drawn) [Compound 8], the figure is no more than 2 µM.

`COc1cc(C(=O)N2CCC3(CC2)c2c(Cl)cc(C(F)(F)F)n2CCN3C)ccc1OC(C)C` [Compound 9]: the IC50 was no more than 2 µM. With `Cc1cc(C(=O)N2CCC3(CC2)c2ccc(Cl)n2CCN3C)ccc1C(C)(C)O` [Compound 10] the figure was no more than 2 µM.

In the case of `CC(C)Oc1ccc(C(=O)N2CCC3(CC2)c2ccc(CC(F)(F)F)n2CCN3C)cc1Cl` [Compound 11], the IC50 is no more than 2 µM. As for `CN1CCn2c(C(=O)C(F)(F)F)ccc2C12CCN(C(=O)c1ccc(C(C)(C)C)cc1)CC2` [Compound 12], the figure is no more than 2 µM; as for `CNS(=O)(=O)c1ccc(C(=O)N2CCC3(CC2)c2ccc(C(F)(F)C(F)(F)F)n2CCN3C)cc1C` [Compound 13], no more than 2 µM. Turning to `COc1ccc(C(=O)N2CCC3(CC2)c2ccc(C(=O)C(F)(F)F)n2C[C@H](C)N3C)cc1C` [Compound 14], the IC50 was no more than 2 µM. With `COc1ccc(C(=O)N2CCC3(CC2)c2ccc(C(=O)C(F)(F)F)n2C(C)CN3C)nc1C` (stereo not drawn) [Compound 15] the figure was no more than 2 µM; with `CC(C)Oc1ccc(C(=O)N2CCC3(CC2)c2ccc(C(=O)C(F)(F)F)n2C(C)(C)CN3C)cc1F` [Compound 16], 2 to 5 µM. As for `COc1cc(C(=O)N2CCC3(CC2)c2ccc(C(=O)C(F)(F)F)n2CCN3C)ccc1COCC(F)(F)F` [Compound 17], the figure is no more than 2 µM; as for `CCCOc1ccc(C(=O)N2CCC3(CC2)c2c(F)cc(C(F)(F)F)n2CCN3C)cc1` [Compound 18], no more than 2 µM; as for `CN1CCn2c(C(=O)C3(C)CC3)ccc2C12CCN(C(=O)c1ccc(O)c(Cl)c1)CC2` [Compound 19], no more than 2 µM. For the compound `CCCCCc1ccc(C(=O)N2CCC3(CC2)c2ccc(Cl)n2CCN3C)cc1` [Compound 20], the IC50 was no more than 2 µM. `CN1CCn2c(C(F)(F)F)ccc2C12CCN(C(=O)c1cnn3c(C(F)F)cc(C4CC4)nc13)CC2` [Compound 21]: the IC50 is greater than 5 µM. With `CC(C)Oc1ccc(C(=O)N2CCC3(CC2)c2ccc(C(F)(F)F)n2CCN3C)nc1` [Compound 22], the half-inhibitory concentration (IC50) was greater than 5 µM. Regarding `CN1CCn2c(C(F)(F)F)cc(F)c2C12CCN(C(=O)c1ccc(S(=O)(=O)C(F)F)cc1)CC2` [Compound 23], the IC50 was no more than 2 µM. As for `CCNS(=O)(=O)c1ccc(C(=O)N2CCC3(CC2)c2ccc(Cl)n2CCN3C)cc1` [Compound 24], the figure is 2 to 5 µM; as for `CC(C)Oc1ccc(C(=O)N2CCC3(CC2)c2ccc(Cl)n2CCN3C)cc1F` [Compound 25], greater than 5 µM. With `CCc1ccc(C(=O)N2CCC3(CC2)c2ccc(C(=O)C(F)(F)F)n2CCN3C)cc1` [Compound 26] the figure was 2 to 5 µM. Consider `CN1CCn2c(C(F)(F)F)ccc2C12CCN(C(=O)c1ccccc1Oc1ccccc1)CC2` [Compound 27], for which the IC50 is no more than 2 µM.

As for `Cc1cc(C(=O)N2CCC3(CC2)c2ccc(C(F)(F)F)n2CCN3C)ccc1S(=O)(=O)NC1CC1` [Compound 28], the IC50 is no more than 2 µM. With `COc1cc(C(=O)N2CCC3(CC2)c2ccc(C(F)(F)F)n2C[C@H](C)N3C)ccc1OC(C)C` [Compound 29] the figure was no more than 2 µM.

In the case of `CC(=O)c1cc2n(c1)CC(C)(C)NC21CCN(C(=O)c2ccc(OC(C)C)c(Cl)c2)CC1` [Compound 30], the IC50 is greater than 5 µM.

Take `CN1CCn2c(C(=O)C3CC3)ccc2C12CCN(C(=O)c1ccc(O)c(Cl)c1)CC2` [Compound 31]: the half-inhibitory concentration (IC50) lay within 2 to 5 µM.

As to `CN1CCn2c(Cl)ccc2C12CCN(C(=O)c1ccc(OCC(C)(C)C)cc1)CC2` [Compound 32], the IC50 was no more than 2 µM. For `CN1CCn2c(C(=O)C(F)(F)F)ccc2C12CCN(C(=O)c1ccc(S(=O)(=O)NC3CC3)cc1)CC2` [Compound 33], the IC50 is no more than 2 µM. As for `CCCCOc1ccc(C(=O)N2CCC3(CC2)c2ccc(C(C)=O)n2CCN3C)cc1` [Compound 34], the figure is no more than 2 µM; as for `COCC#Cc1ccc(C(=O)N2CCC3(CC2)c2ccc(Cl)n2CCN3C)cc1F` [Compound 36], greater than 5 µM. As for `CC(C)Oc1ccc(C(=O)N2CCC3(CC2)NC(C)(C)Cn2c(C(F)(F)F)ccc23)cc1Cl` [Compound 37], the figure is no more than 2 µM.

As to `CC[C@H](C)Oc1ccc(C(=O)N2CCC3(CC2)c2ccc(Cl)n2CCN3C)cc1OC` [Compound 38], the IC50 was 2 to 5 µM. For `Cc1cc(C(=O)N2CCC3(CC2)c2cccn2CCN3Cc2ccccc2)ccc1OC(C)C` [Compound 39], the IC50 was no more than 2 µM. With `CC(C)Oc1ccc(C(=O)N2CCC3(CC2)c2ccc(C(=O)C(F)(F)F)n2CCN3C)cc1F` [Compound 40] the figure was no more than 2 µM; with `CC1(C)Cn2c(C(=O)C(F)(F)F)ccc2C2(CCN(C(=O)c3ccc(COCC(F)(F)F)cc3)CC2)N1` [Compound 41], no more than 2 µM. With `COc1cccc(C(=O)N2CCC3(CC2)c2ccc(C(F)(F)F)n2CCN3C)c1` [Compound 42] the figure was greater than 5 µM. With `O=C(c1ccccc1Oc1ccccc1)N1CCC2(CC1)NCCn1c(C(F)(F)F)ccc12` [Compound 43], the IC50 is greater than 5 µM. As for `CC(C)CNc1ncccc1C(=O)N1CCC2(CC1)c1ccc(C(F)(F)F)n1CCN2C` [Compound 44], the figure is 2 to 5 µM. Consider `CN1CCn2c(C(=O)C(F)(F)F)ccc2C12CCN(C(=O)c1ccc(OCC3CC3)c(F)c1)CC2` [Compound 46], for which the concentration for half-maximal inhibition (IC50) is no more than 2 µM. As for `CN1CCn2c(C(=O)C(F)(F)F)ccc2C12CCN(C(=O)c1ccc(OCC3CC3)cc1)CC2` [Compound 47], the figure is no more than 2 µM; as for `COc1cc(C(=O)N2CCC3(CC2)c2cc(C(F)(F)F)c(C(F)(F)F)n2CCN3C)ccc1OC(C)C` [Compound 48], no more than 2 µM; as for `CN1CCn2c(C(F)(F)F)ccc2C12CCN(C(=O)c1ccnc3ccccc13)CC2` [Compound 49], no more than 2 µM. As for `CC(C)c1cc(C(=O)N2CCC3(CC2)c2ccc(C(=O)C(F)(F)F)n2CCN3C)ccc1O` [Compound 50], the figure is no more than 2 µM. As to `CC(C)Oc1ccc(C(=O)N2CCC3(CC2)c2ccc(C(=O)C(F)(F)F)n2CCN3C)cc1C#N` [Compound 51], the IC50 is no more than 2 µM. For the compound `CC(C)Oc1ccc(C(=O)N2CCC3(CC2)c2cc(C(=O)C(F)(F)F)cn2C(C)(C)CN3C)c(F)c1` [Compound 52], the IC50 was greater than 5 µM. In the case of `CN1CCn2c(C(=O)C3(C)CC3)ccc2C12CCN(C(=O)c1ccc(S(=O)(=O)NC3CC3)cc1)CC2` [Compound 53], the IC50 is no more than 2 µM.

A word on the IC50: it is the concentration needed to halve the response being measured.
